Tests used:
[1] = system: Influenza A virus; assay type: functional, organism-based, A/WSN/33 (H1N1); conditions: mdck
[2] = system: Influenza A virus; assay type: functional, organism-based; conditions: A/HK/68 (H3N2), MDCK
[3] = system: Influenza A virus; assay type: functional, organism-based; conditions: A/WSN/33, MDCK, 48 h
[4] = system: Influenza A virus; assay type: functional, organism-based, A/WSN/33; conditions: mdck
[5] = system: Influenza A virus; assay type: functional, organism-based, A/WSN/33; conditions: mdck; remark: listed apart in the source
[6] = system: Influenza A virus; assay type: functional, organism-based, A/WSN/33; conditions: mdck; remark: listed apart in the source
[7] = system: Influenza A virus; assay type: functional, organism-based, A/WSN/33; conditions: mdck; remark: listed apart in the source
[8] = system: Influenza A virus; assay type: functional, organism-based, A/WSN/33; conditions: mdck; remark: listed apart in the source
[9] = system: Influenza A virus; assay type: functional, organism-based; conditions: A/WSN/33, MDCK, 48 h; remark: listed apart in the source
[10] = system: Influenza A virus; assay type: functional, organism-based, A/WSN/33; conditions: mdck; remark: listed apart in the source
[11] = system: Influenza A virus; test: Antiviral activity against influenza A virus harboring wild type M2 ion channel infected in MDCK cells assessed as viral growth inhibition preincubated with cells for 30 mins followed by viral infection and measured after 72 hrs by CCK-8 assay; assay type: functional, organism-based

`Cc1ccc(/C(=N\O)[C@@H]2C[C@@H]3C[C@H](C2C)C3(C)C)s1` (stereo not given in full) was tested. Which EC50 [1] did it give?
The EC50 was 11.9 µM.

What about the EC50 [2] of the same molecule?
Its EC50 is 29.1 µM.

Which EC50 [3] does the source give for `COc1ccc(CNc2ccc(C34CC5CC(CC(C5)C3)C4)cc2)c(O)c1` here?
Its EC50 is 0.66 µM.

What about the EC50 [4] of the same molecule?
Its EC50 is 48 µM.

And the EC50 [5]?
Its EC50 is 17.4 µM.

What about the EC50 [6] of the same molecule?
The EC50 was 0.66 µM.

What about the EC50 [7] of the same molecule?
Its EC50 is 21.6 µM.

And the EC50 [8]?
The EC50 was 22.5 µM.

What about the EC50 [9] of the same molecule?
The EC50 was 8.04 µM.

What about the EC50 [10] of the same molecule?
Its EC50 is 55 µM.

How did the EC50 [6] turn out when `COc1ccc(CNC23CC4C5CC6C7CC8CC6C(C5C2)C(C8)(C3)C74)c(O)c1` was run?
The EC50 was 8.1 µM.

Which results are given for `Cc1cc(/C(=N\O)[C@@H]2C[C@@H]3C[C@H](C2C)C3(C)C)sc1Cl` (stereo not given in full)?
EC50 [1]: 2.45 µM; EC50 [2]: 3.29 µM

With `CC1[C@H]2C[C@@H](C[C@H]1/C(=N/O)c1cccs1)C2(C)C` (stereo not given in full) as the molecule, how does the EC50 [1] read?
The EC50 was 11.8 µM.

What about the EC50 [2] of the same molecule?
Its EC50 is 12.4 µM.

With `CC(N)[C@H]1C[C@H]2CC[C@]1(C)C2(C)C` (stereo not given in full) as the molecule, how does the IC50 ([11]; Influenza A virus, MDCK) read?
The IC50 was 0.1 µM.

With `COc1ccc(CNC23CC4C5CC6CC4C(C2)C(C6)C5C3)c(O)c1` as the molecule, how does the EC50 [3] read?
The EC50 was 0.29 µM.

What about the EC50 [4] of the same molecule?
The EC50 was 55.8 µM.

And the EC50 [5]?
The EC50 was 21.2 µM.

What about the EC50 [6] of the same molecule?
Its EC50 is 0.29 µM.

What about the EC50 [7] of the same molecule?
The EC50 was 17.3 µM.

What about the EC50 [8] of the same molecule?
The EC50 was 38.4 µM.

And the EC50 [9]?
Its EC50 is 22 µM.

What about the EC50 [10] of the same molecule?
Its EC50 is 47.5 µM.

For `C[C@H]1[C@H](N)C[C@@H]2C[C@H]1C2(C)C`, which IC50 ([11]; Influenza A virus, MDCK) is on record?
Its IC50 is 0.12 µM.

Which EC50 [6] does the source give for `COc1ccc(CNC23CC4CC(CC(C4)C2)C3)c(O)c1` here?
The EC50 was 1.13 µM.

And the EC50 [9]?
Its EC50 is 8.74 µM.

Which IC50 ([11]; Influenza A virus, MDCK) does the source give for `CC1(C)[C@@H]2CC[C@@]1(C)[C@@H](CN)C2` [listing 1 of 2 here] here?
The IC50 was 0.29 µM.

For `CC1[C@H]2C[C@@H](C[C@H]1/C(=N/O)c1cc(Cl)c(Cl)s1)C2(C)C` (stereo not given in full), which EC50 [1] is on record?
Its EC50 is 10.2 µM.

And the EC50 [2]?
Its EC50 is 9.44 µM.

Which IC50 ([11]; mdck) does the source give for `CC1(C)[C@@H]2CC[C@@]1(C)[C@@H](CN)C2` [listing 2 of 2 here] here?
Its IC50 is 0.49 µM.

How did the EC50 [1] turn out when `Cc1cc(/C(=N\O)[C@@H]2C[C@@H]3C[C@H](C2C)C3(C)C)sc1Br` (stereo not given in full) was run?
Its EC50 is 5.97 µM.

And the EC50 [2]?
Its EC50 is 7.11 µM.

Which results are given for `Cc1cc(/C(=N\O)[C@@H]2C[C@@H]3C[C@H](C2C)C3(C)C)sc1C` (stereo not given in full)?
EC50 [1]: 30.2 µM; EC50 [2]: 4.84 µM

Which results are given for `Cc1csc(/C(=N\O)[C@@H]2C[C@@H]3C[C@H](C2C)C3(C)C)c1` (stereo not given in full)?
EC50 [1]: 14.8 µM; EC50 [2]: 10.8 µM

Which EC50 [3] does the source give for `COc1ccc(CNC(C)(C)C23CC4CC(CC(C4)C2)C3)c(O)c1` here?
The EC50 was 0.13 µM.

And the EC50 [4]?
The EC50 was 19.2 µM.

And the EC50 [5]?
The EC50 was 19.9 µM.

And the EC50 [6]?
The EC50 was 0.09 µM.

And the EC50 [7]?
Its EC50 is 1.8 µM.

What about the EC50 [8] of the same molecule?
The EC50 was 43.9 µM.

And the EC50 [9]?
Its EC50 is 20.9 µM.

`NC12CC3CC(CC(C3)C1)C2` [AMANTADINE] was tested. Which IC50 ([11]; Influenza A virus, MDCK) did it give?
Its IC50 is 0.5 µM.

Source: ChEMBL document CHEMBL5512617, “Tackling Influenza A virus by M2 ion channel blockers: Latest progress and limitations” (Eur J Med Chem, 2024)
